Like-named read-outs stand apart in the source and are kept apart here.
Assays:
[1] = Early clinical studies: PK profile of Compound 1 given as immediate release (IR) formulation; format: in vivo; details: human, plasma, oral
Protocol: The formulations used in early clinical studies included a 0.1 mg/mL oral solution to support doses up to 5 mg; active-pharmaceutical-ingredient (API) in HPMC capsules for doses between 5 mg to 120 mg; and roller-compacted IR tablets of 10, 20 and 30 mg strength.
The pharmacokinetic (PK) profile of Compound 1 when administered as an immediate release (IR) formulation was characterized by rapid absorption and elimination with time to maximum concentration (Tmax) of approximately 2 hours post-dose. […] A majority of the systemic exposure to GSK2982772 was associated with the shorter half-life of 2-3 hours.

[2] = plasma/blood, 120 mg dose of IR formulation; cited from earlier work

half-life ([1]; phase until approximately 12 hours post-dose, read-out: elimination half-life (t1/2)): 2 to 3 h
Tmax ([1]; post-dose, read-out: time to maximum concentration (Tmax)): ~2 h
half-life ([1]; read-out: slower terminal phase t1/2): 5 to 6 h
Compound: CN1C(=O)[C@@H](NC(=O)c2nnc(Cc3ccccc3)[nH]2)COc2ccccc21 [Compound 1, (S)-5-benzyl-N-(5-methyl-4-oxo-2,3,4,5-tetrahydrobenzo[b][1,4]oxazepin-3-yl)-4H-1,2,4-triazole-3-carboxamide]
t1/2 [2]: 2 to 3 h
